Results taken from patent US20110124564A1, “NUCLEOLIN-BINDING PEPTIDES, NUCLEOLIN- BINDING LYTIC PEPTIDES, FUSION CONSTRUCTS AND METHODS OF MAKING AND USING SAME” (ESPERANCE PHARMACEUTICALS, INC., published 2011).
Several values for one entry are separate records, joined by “and”; a condition that tells them apart may be missing. Equal values may be shown once. Read-outs that look alike come from different tables or passages of the source. Each block holds one molecule with its values, some of them ahead of it. Residues, ends and D or L forms follow the SMILES beside them.

Experiments:
[1] = system: MDA-MB-435S breast cancer cells; format: cell-based, human
Experimental: Twelve different fusion constructs were analyzed for anti-cancer activity in vitro against MDA-MB-435S breast cancer cells and for hemolytic activity in vitro to human red blood cells. Fusion constructs of the following sequence were tested:
The peptide conjugates were freshly dissolved in saline and added into cancer cell seeded multi-well plates at increasing concentrations of 0, 0.001, 0.01, 0.1, 1, 2, 5, 10 and 100 μM. Incubations were conducted for 4 h at 37° C. Cell viability was determined using formazan conversion assays (MTT assays). Controls were treated with USP saline or 0.1% TritonX-100™ as reference for 0 and 100% cell death, respectively. Cytotoxicity was evaluated as an IC50 value.

human red blood cells = experiment: Hemolytic activity; format: cell-based
Experimental: Hemolytic activity was studied by incubating the fusion constructs with human red blood cells at concentrations of 0.01, 0.1, 1, 10 and 50 μM for 2 hours. Saline and 0.1% Triton served as controls.
Hemolytic activity of the compounds was studied by incubating EP-301 and EP-302 with human red blood cells at concentrations of 0.01, 0.1, 1, 10 and 50 μM for 2 hours.

[2] = biological target: nucleolin expressed on the surface of human cancer cell lines (human, UniProt P19338); experiment: cell-based or functional assay
[3] = MDA-MB-435S, 4 h at 37° C, MTT, read-out: IC50

IC50 ([1]; 4 h): 800 ± 160 nM
Molecule: CC(C)C[C@H](NC(=O)[C@H](CCCNC(=N)N)NC(=O)[C@H](C)NC(=O)[C@@H](NC(=O)[C@H](CCCCN)NC(=O)[C@H](C)NC(=O)[C@H](Cc1ccccc1)NC(=O)[C@H](CCCCN)NC(=O)[C@H](CCCCN)NC(=O)[C@H](C)NC(=O)[C@H](Cc1ccccc1)NC(=O)[C@H](CCCCN)NC(=O)[C@H](C)NC(=O)[C@H](Cc1ccccc1)NC(=O)[C@H](CCCCN)NC(=O)[C@H](CCCCN)NC(=O)[C@H](C)NC(=O)[C@H](Cc1ccccc1)NC(=O)[C@H](CCCCN)NC(=O)[C@H](C)NC(=O)[C@H](Cc1ccccc1)NC(=O)[C@@H](N)CCCCN)C(C)C)C(=O)N[C@@H](CCC(N)=O)C(=O)N[C@@H](CCCNC(=N)N)C(=O)N[C@@H](CCCNC(=N)N)C(=O)N[C@@H](Cc1ccccc1)C(=O)N[C@@H](C)C(=O)O (H-KFAKFAKKFAKFAKKFAKVARLQRRFA-OH)
HA50 (human red blood cells): Not hemolytic

IC50 ([1]; 4 h): 7300 nM
Molecule: CC(C)C[C@H](NC(=O)[C@H](CCCNC(=N)N)NC(=O)[C@H](C)NC(=O)[C@H](CO)NC(=O)[C@H](CCCNC(=N)N)NC(=O)[C@H](CCCNC(=N)N)NC(=O)[C@H](CCC(N)=O)NC(=O)[C@@H]1CCCN1C(=O)[C@H](C)NC(=O)[C@H](CCCNC(=N)N)NC(=O)[C@H](CCCCN)NC(=O)[C@H](CCCCN)NC(=O)[C@H](C)NC(=O)[C@H](Cc1ccccc1)NC(=O)[C@H](CCCCN)NC(=O)[C@H](CCCCN)NC(=O)[C@H](C)NC(=O)[C@H](Cc1ccccc1)NC(=O)[C@H](CCCCN)NC(=O)[C@H](C)NC(=O)[C@H](Cc1ccccc1)NC(=O)[C@H](CCCCN)NC(=O)[C@H](CCCCN)NC(=O)[C@H](C)NC(=O)[C@H](Cc1ccccc1)NC(=O)[C@H](CCCCN)NC(=O)[C@H](C)NC(=O)[C@H](Cc1ccccc1)NC(=O)[C@@H](N)CCCCN)C(=O)N[C@@H](CO)C(=O)N[C@@H](C)C(=O)N[C@@H](CCCCN)C(=O)O (H-KFAKFAKKFAKFAKKFAKKRAPQRRSARLSAK-OH; N-terminus and C-terminus assumed)
HA50 (human red blood cells): Not hemolytic

Molecule: CC(C)C[C@H](NC(=O)[C@H](CCCNC(=N)N)NC(=O)[C@H](C)NC(=O)[C@H](Cc1ccccc1)NC(=O)[C@H](CCCCN)NC(=O)[C@H](C)NC(=O)[C@H](Cc1ccccc1)NC(=O)[C@H](CCCCN)NC(=O)[C@H](CCCCN)NC(=O)[C@H](C)NC(=O)[C@H](Cc1ccccc1)NC(=O)[C@H](CCCCN)NC(=O)[C@H](C)NC(=O)[C@H](Cc1ccccc1)NC(=O)[C@H](CCCCN)NC(=O)[C@H](CCCCN)NC(=O)[C@H](C)NC(=O)[C@H](Cc1ccccc1)NC(=O)[C@H](CCCCN)NC(=O)[C@H](C)NC(=O)[C@H](Cc1ccccc1)NC(=O)[C@@H](N)CCCCN)C(=O)N[C@@H](Cc1ccccc1)C(=O)N[C@@H](C)C(=O)N[C@@H](CCCCN)C(=O)O (H-KFAKFAKKFAKFAKKFAKFARLFAK-OH)
IC50 [1, 3]: 1230 ± 700 nM
HA50 (human red blood cells; human red blood cells, 2 hours): 14.3 µM and 14.3 ± 2.1 µM

Molecule: CC(C)C[C@H](NC(=O)[C@H](CCCNC(=N)N)NC(=O)[C@H](C)NC(=O)[C@H](CO)NC(=O)[C@H](CCCNC(=N)N)NC(=O)[C@H](CCCNC(=N)N)NC(=O)[C@H](CCC(N)=O)NC(=O)[C@H](CC(C)C)NC(=O)[C@H](CCCNC(=N)N)NC(=O)[C@H](CCCCN)NC(=O)[C@H](C)NC(=O)[C@H](Cc1ccccc1)NC(=O)[C@H](CCCCN)NC(=O)[C@H](CCCCN)NC(=O)[C@H](C)NC(=O)[C@H](Cc1ccccc1)NC(=O)[C@H](CCCCN)NC(=O)[C@H](C)NC(=O)[C@H](Cc1ccccc1)NC(=O)[C@H](CCCCN)NC(=O)[C@H](CCCCN)NC(=O)[C@H](C)NC(=O)[C@H](Cc1ccccc1)NC(=O)[C@H](CCCCN)NC(=O)[C@H](C)NC(=O)[C@H](Cc1ccccc1)NC(=O)[C@@H](N)CCCCN)C(=O)N[C@@H](CO)C(=O)N[C@@H](C)C(=O)N[C@@H](CCCCN)C(=O)O (H-KFAKFAKKFAKFAKKFAKRLQRRSARLSAK-OH)
IC50 [1, 3]: 2200 ± 300 nM
HA50 (human red blood cells; human red blood cells, 2 hours): 56 µM
HA50 (human red blood cells; human red blood cells, 2 hours, listed as KFAKFAKKFAKFAICKFAKR19LQRRSARLSAK30): 56 ± 8.5 µM

IC50 ([1]; 4 h): 4100 nM
Molecule: CC(C)C[C@H](NC(=O)[C@H](CCCNC(=N)N)NC(=O)[C@H](C)NC(=O)[C@H](CO)NC(=O)[C@H](CCCCN)NC(=O)[C@H](C)NC(=O)[C@H](Cc1ccccc1)NC(=O)[C@H](CCCCN)NC(=O)[C@H](CCCCN)NC(=O)[C@H](C)NC(=O)[C@H](Cc1ccccc1)NC(=O)[C@H](CCCCN)NC(=O)[C@H](C)NC(=O)[C@H](Cc1ccccc1)NC(=O)[C@H](CCCCN)NC(=O)[C@H](CCCCN)NC(=O)[C@H](C)NC(=O)[C@H](Cc1ccccc1)NC(=O)[C@H](CCCCN)NC(=O)[C@H](C)NC(=O)[C@H](Cc1ccccc1)NC(=O)[C@@H](N)CCCCN)C(=O)N[C@@H](CO)C(=O)N[C@@H](C)C(=O)N[C@@H](CCCCN)C(=O)O (H-KFAKFAKKFAKFAKKFAKSARLSAK-OH)

Molecule: CC(C)C[C@H](NC(=O)[C@H](CCCNC(=N)N)NC(=O)[C@H](C)NC(=O)[C@H](Cc1ccccc1)NC(=O)[C@H](CCCNC(=N)N)NC(=O)[C@H](CCCNC(=N)N)NC(=O)[C@H](CCC(N)=O)NC(=O)[C@H](CC(C)C)NC(=O)[C@H](CCCNC(=N)N)NC(=O)[C@H](CCCCN)NC(=O)[C@H](C)NC(=O)[C@H](Cc1ccccc1)NC(=O)[C@H](CCCCN)NC(=O)[C@H](CCCCN)NC(=O)[C@H](C)NC(=O)[C@H](Cc1ccccc1)NC(=O)[C@H](CCCCN)NC(=O)[C@H](C)NC(=O)[C@H](Cc1ccccc1)NC(=O)[C@H](CCCCN)NC(=O)[C@H](CCCCN)NC(=O)[C@H](C)NC(=O)[C@H](Cc1ccccc1)NC(=O)[C@H](CCCCN)NC(=O)[C@H](C)NC(=O)[C@H](Cc1ccccc1)NC(=O)[C@@H](N)CCCCN)C(=O)N[C@@H](Cc1ccccc1)C(=O)N[C@@H](C)C(=O)N[C@@H](CCCCN)C(=O)O (H-KFAKFAKKFAKFAKKFAKRLQRRFARLFAK-OH)
IC50 [1, 3]: 740 ± 120 nM

IC50 ([1]; 4 h): 3600 nM
Molecule: CC(C)C[C@H](NC(=O)[C@H](CCCNC(=N)N)NC(=O)[C@H](C)NC(=O)[C@H](CCCNC(=N)N)NC(=O)[C@H](CCCCN)NC(=O)[C@H](C)NC(=O)[C@H](Cc1ccccc1)NC(=O)[C@H](CCCCN)NC(=O)[C@H](CCCCN)NC(=O)[C@H](C)NC(=O)[C@H](Cc1ccccc1)NC(=O)[C@H](CCCCN)NC(=O)[C@H](C)NC(=O)[C@H](Cc1ccccc1)NC(=O)[C@H](CCCCN)NC(=O)[C@H](CCCCN)NC(=O)[C@H](C)NC(=O)[C@H](Cc1ccccc1)NC(=O)[C@H](CCCCN)NC(=O)[C@H](C)NC(=O)[C@H](Cc1ccccc1)NC(=O)[C@@H](N)CCCCN)C(=O)N[C@@H](CCC(N)=O)C(=O)O (H-KFAKFAKKFAKFAKKFAKRARLQ-OH)

IC50 ([1]; 4 h): 400 ± 2 nM
Molecule: CC(C)C[C@H](NC(=O)[C@H](CCCNC(=N)N)NC(=O)[C@H](C)NC(=O)[C@H](Cc1ccccc1)NC(=O)[C@H](CCCNC(=N)N)NC(=O)[C@H](CCCNC(=N)N)NC(=O)[C@H](CCC(N)=O)NC(=O)[C@H](CC(C)C)NC(=O)[C@H](CCCNC(=N)N)NC(=O)[C@H](C)NC(=O)[C@@H](NC(=O)[C@H](CCCCN)NC(=O)[C@H](C)NC(=O)[C@H](Cc1ccccc1)NC(=O)[C@H](CCCCN)NC(=O)[C@H](CCCCN)NC(=O)[C@H](C)NC(=O)[C@H](Cc1ccccc1)NC(=O)[C@H](CCCCN)NC(=O)[C@H](C)NC(=O)[C@H](Cc1ccccc1)NC(=O)[C@H](CCCCN)NC(=O)[C@H](CCCCN)NC(=O)[C@H](C)NC(=O)[C@H](Cc1ccccc1)NC(=O)[C@H](CCCCN)NC(=O)[C@H](C)NC(=O)[C@H](Cc1ccccc1)NC(=O)[C@@H](N)CCCCN)C(C)C)C(=O)N[C@@H](Cc1ccccc1)C(=O)N[C@@H](C)C(=O)N[C@@H](CCCCN)C(=O)O (H-KFAKFAKKFAKFAKKFAKVARLQRRFARLFAK-OH)

Molecule: KFAKFAKKFAKFAKKFAKSARLSAK [KFAKFAKKFAKFAKKFAKS19ARLSAK25]
IC50 of cytotoxicity (MTT), MDA-MB-435S breast cancer cells, 4 h [2]: 4100 nM

Molecule: KFAKFAKKFAKFAKKFAKRLQRRSARLSAK [KFAKFAKKFAKFAKKFAKR19LQRRSARLSAK30]
IC50 of cytotoxicity (MTT), MDA-MB-435S breast cancer cells, 4 h [2]: 2200 nM

Molecule: KFAKFAKKFAKFAKKFAKRARLQRRF [KFAKFAKKFAKFAKKFAKR19ARLQRRF26]
IC50 of cytotoxicity (MTT), MDA-MB-435S breast cancer cells, 4 h [2]: 870 nM

Molecule: KFAKFAKKFAKFAKKFAKFARLFAK [KFAKFAKKFAKFAKKFAKF19ARLFAK25]
IC50 of cytotoxicity (MTT), MDA-MB-435S breast cancer cells, 4 h [2]: 1230 nM

Molecule: KFAKFAKKFAKFAKKFAKVARLQRRFARLFAK [KFAKFAKKFAKFAKKFAKV19ARLQRRFARLFAK32]
IC50 of cytotoxicity (MTT), MDA-MB-435S breast cancer cells, 4 h [2]: 400 nM

Molecule: KFAKFAKKFAKFAKKFAKKRAPQRRSARLSAK [KFAKFAKKFAKFAKKFAKK19RAPQRRSARLSAK32]
IC50 of cytotoxicity (MTT), MDA-MB-435S breast cancer cells, 4 h [2]: 7300 nM

Molecule: KFAKFAKKFAKFAKKFAKVARLQRRFA [KFAKFAKKFAKFAKKFAKV19ARLQRRFA27]
IC50 of cytotoxicity (MTT), MDA-MB-435S breast cancer cells, 4 h [2]: 800 nM

Molecule: KFAKFAKKFAKFAKKFAKRARLQ [KFAKFAKKFAKFAKKFAKR19ARLQ23]
IC50 of cytotoxicity (MTT), MDA-MB-435S breast cancer cells, 4 h [2]: 3600 nM

Molecule: KFAKFAKKFAKFAKKFAKRARLQRR [KFAKFAKKFAKFAKKFAKR19ARLQRR25]
IC50 of cytotoxicity (MTT), MDA-MB-435S breast cancer cells, 4 h [2]: 1600 nM

Molecule: KFAKFAKKFAKFAKKFAKRLQRRFARLFAK [KFAKFAKKFAKFAKKFAKR19LQRRFARLFAK30]
IC50 of cytotoxicity (MTT), MDA-MB-435S breast cancer cells, 4 h [2]: 740 nM
